Test results published in publication PMC8872362, “Balanced Polymorphism at the Pgm-1 Locus of the Pompeii Worm Alvinella pompejana and Its Variant Adaptability Is Only Governed by Two QE Mutations at Linked Sites” (Genes, 2022).
Where two headings read alike, the source gives them in different places.

System: PGM-1 (recombinant isoform PGM100, E155 E190)
Experiment: G6PD-coupled NADPH assay, Lineweaver-Burk
Assay type: biochemical, Alvinella pompejana
Conditions: 50 mM Tris-HCl pH 7.4, 0.5 M MgCl2 (so in the source), 1.2 mM NADP, 0.1 µM G6PD, G1P 0.2-60 mM, 17 °C
From the text: G6PD-coupled NADPH assay, Lineweaver-Burk on PGM-1 (recombinant isoform PGM100, E155 E190)

SMILES: O=P(O)(O)O[C@H]1O[C@H](CO)[C@@H](O)[C@H](O)[C@H]1O [G1P, α-D-glucose 1-phosphate]
- Km (PGM78, natural allele QE, read-out: PGM 78 / 1st Transition): 0.76 ± 0.07 mM
- Km (PGM90, natural allele EQ, read-out: PGM 90 / 1st Transition): 6.25 ± 0.35 mM
- Km (read-out: PGM 100 / 1st Transition): 5.22 ± 0.74 mM
